Assay results as given in patent publication US8791132B2, “Compounds and methods for treatment of hypertension” (Medivation Technologies, Inc., priority 2011, dated 2014).

How the values were obtained:
[1] = biological target: T1, human recombinant adrenergic α1D receptor (Homo sapiens, UniProt P25100); assay: Radioligand binding, adrenergic α1D ([3H]Prazosin); conditions: compound at 0.1 μM; [3H]Prazosin; repeat assays, each datapoint shown; read-out: Percentage inhibition of ligand binding, Adrenergic α1D
T1 construct: expressed in transfected cells; host or cells: HEK-293
T1 sequence (P25100 1-572): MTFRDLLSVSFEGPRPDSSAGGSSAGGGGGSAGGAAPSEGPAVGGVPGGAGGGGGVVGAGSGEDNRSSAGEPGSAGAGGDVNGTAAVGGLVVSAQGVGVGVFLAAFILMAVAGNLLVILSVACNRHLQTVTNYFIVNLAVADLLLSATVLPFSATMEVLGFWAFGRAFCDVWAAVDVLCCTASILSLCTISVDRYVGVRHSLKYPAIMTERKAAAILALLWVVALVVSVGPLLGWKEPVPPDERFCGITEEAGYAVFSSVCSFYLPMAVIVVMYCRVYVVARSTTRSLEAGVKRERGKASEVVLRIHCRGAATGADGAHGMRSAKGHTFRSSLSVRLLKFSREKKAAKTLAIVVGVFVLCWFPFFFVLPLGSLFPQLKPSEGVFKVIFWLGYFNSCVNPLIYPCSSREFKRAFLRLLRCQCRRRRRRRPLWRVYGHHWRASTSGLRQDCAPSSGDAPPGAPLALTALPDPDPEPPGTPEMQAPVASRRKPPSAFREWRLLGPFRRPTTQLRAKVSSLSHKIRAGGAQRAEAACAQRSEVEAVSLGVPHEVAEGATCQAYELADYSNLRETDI
Procedure: Compounds were incubated with 0.6 nM [3H]Prazosin for 60 min at 25° C. Non-specific binding was estimated in the presence of 10 μM phentolamine. Receptor proteins were filtered and washed, the filters were then counted to determine [3H]Prazosin specifically bound. […] Biochemical assay results are presented as the percent inhibition of specific binding in Table B1.

[2] = tested on: SH-SY5Y cells over-expressing α-syn; assay: Cell viability (MTS reduction) in SH-SY5Y cells over-expressing α-synuclein; type: cell-based; conditions: Homo sapiens, 336 h, α-syn over-expression (−dox), compounds at 0.1 nM, +dox control = 100, 14 days, read-out: Relative cell viability protection
Procedure: Cell Culture. SH-SY5Y cells stably transfected with a doxycyline-inducible wild-type α-synuclein (α-syn) gene along with control SH-SY5Y cells over-expressing the β-galactosidase (β-gal) gene (a gift from L. Stefanis, Division of Basic Neurosciences, Biomedical Research Foundation of the Academy of Athens, Athens, Greece) are cultured as described by Vekrellis et al. (Vekrellis K, Xilouri M, Emmanouilidou E, Stefanis L. (2009). Inducible over-expression of α-syn in human neuronal cells leads to caspase-dependent non-apoptotic death. J Neurochem 109, 1348-1362). In accordance with this method, cells are cultured and maintained in RPMI 1640, 10% fetal bovine serum supplemented with 250 μg/mL G418 and 50 μg/mL Hygromycin B. Expression of α-syn is switched off in stock cultures with doxycycline (2 μg/mL). For experimental procedures, cells are plated at (4−8×10^4 cells/cm^2) and differentiated in absence of doxycycline and in the presence of 20 μM all-trans retinoic acid (RA) (Sigma, St Louis, Mo., USA).
Viability Assay: Cells are cultured in 96-well plates. After 24 h, cells are treated with RA and Compounds of Invention at 0.1 and 10 nM in the absence of doxycyline. Culture medium with RA and drugs is fully replaced after 7 days. Cell viability is measured by the release of lactate dehydrogenase (LDH) from necrotic cells into the culture medium and by measuring the capacity of cells to metabolize MTS tetrazolium (MTS) after 14 days in culture. LDH leakage is assessed according to the Cytotoxicity Detection KitPlus (Roche, Mannheim, Germany) and MTS reduction is assessed by the CellTiter 96® AQueous One Solution Cell Proliferation assay (Promega Corporation, Madison, Wis., USA).
Assay results for the experiments with α-syn over-expression are presented as the MTS reduction capacity (cell viability) of control cells (+dox), cells over-expressing α-syn (−dox), and cells over-expressing α-syn incubated with Compounds of the Invention at 0.1 nM (FIG. 18A) or 10 nM (FIG. 18B).

[3] = tested on: spontaneously hypertensive rats (SHR); assay: Blood pressure in spontaneously hypertensive rat (SHR) model of hypertension; type: in vivo; conditions: SC or PO, 4 hour study period (FIGS. 7-10)
Procedure: Male spontaneously hypertensive rats (SHR), approximately 3 months of age and weighting approximately 250 grams were utilized. Free access to standard lab chow for rats and reverse osmosis (RO) water was granted. All aspects of this work, including housing, experimentation and disposal of animals were performed in general accordance with the Guide for the Care and Use of Laboratory Animals (National Academy Press, Washington, D.C., 1996).
The animals were anaesthetized with sodium pentobarbital (50 mg/kg IP). The left carotid artery when compound dosed orally (PO) or subcutaneously (SC); and both left carotid and femoral artery when compound dosed intravenous (i.v.) were cannulated with a polyethylene catheter (38 cm in length; PE60, Portex, Ltd.) connected with a polyurethane tubing (12 cm in length; PU-40, Cat. #BB520-40, Scientific Commodities, Inc.), which was tunneled under the skin and exited through the nape of the neck. The arterial cannula was connected to a pressure transducer through a swivel system, allowing free roaming during continuous recording of mean arterial pressure and heart rate. The animals were housed individually with food and water freely available during recovery. On the following day, the arterial cannula was connected via a Statham (P 23×L) pressure transducer to a NEC/San-Ei amplifier and data acquisition and analysis system (Power Lab 8/SP) for direct mean arterial pressure and heart rate measurements.
The test compounds, dissolved in sterile saline, were administered subcutaneously (SC) or orally (PO), or by intravenous (i.v.) bolus administration in two minutes or the escalating doses of compound administration in every 30 minutes, with each dose and its strength delivered over 2 minutes as shown in the respective figures; the internal standard phentolamine was given by oral gavage. The control group received vehicle alone. Immediately before (−10 min and −5 min) and at 15 min, 30 min, 1 hr, 1.5 hr, 2 hr, 2.5 hr, 3 hr, 3.5 hr, and 4 hr post-dosing, systolic pressure blood pressure values were recorded.

Structure (SMILES) | inhibition at 0.1 µM [1] [%] | viability at 0.0001 µM [2] [%] | systolic blood pressure [3]
Cc1ccc2c(c1)c1c(n2CC(O)c2ccncc2)CCN(C)C1 (single isomer, unassigned) [3b] | 18 | 70.8 | lowered systolic blood pressure
CN1CCc2c(c3cc(Cl)ccc3n2CC(O)c2ccncc2)C1 (single isomer, unassigned) [4a] | – | 73.4 | –
Cc1ccc2c(c1)c1c(n2CC(C)(O)c2cccnc2)CCN(C)C1 (single isomer, unassigned) [5b, 1-(1,2,3,4-tetrahydro-2,8-dimethylpyrido[4,3-b]indol-5-yl)-2-(pyridin-3-yl)propan-2-ol] | 1 | 76.5 | –
Cc1ccc2c(c1)c1c(n2CC(O)c2ccncc2)CCNC1 (single isomer, unassigned) [39a, 2-(8-methyl-1,2,3,4-tetrahydro-pyrido[4,3-b]indol-5-yl)-1-pyridin-4-yl-ethanol] | – | 72.5 | –
Cc1ccc2c(c1)c1c(n2CC(O)c2ccncc2)CCN(C)C1 (stereo not drawn) [compound 3] | 12 | – | dose-dependent reduction in systolic blood pressure
